In patent US9073940B2, “Tricyclic pyrazol amine derivatives” (MERCK SERONO SA, priority 2009, dated 2015):

test system: 4 PI3K isoforms (Human recombinant GST-PI3K); experiment: PI3K scintillation proximity assay, best IC50 obtained with the four isoforms (alpha, beta, delta, gamma); assay type: biochemical; conditions: best IC50 obtained with the four isoforms of PI3K; read-out: Best potency measured on the 4 PI3K isoforms

SMILES	IC50 [nM]
COC1CCN(CCN2CCC[C@H](n3nc(C(=O)N4CCOCC4)c4c3-c3ccc(F)cc3S(=O)(=O)C4)C2)CC1 (stereo in doubt) [Example 474, 7-fluoro-1-{1-[2-(4-methoxypiperidin-1-yl)ethyl]piperidin-3-yl}-3-(morpholin-4-ylcarbonyl)-1,4-dihydrothiochromeno[4,3-c]pyrazole 5,5-dioxide]	13
O=C(c1nn([C@@H]2CCCN(CCC3CCOCC3)C2)c2c1CS(=O)(=O)c1ncccc1-2)N1CCOCC1 (single isomer, unassigned) [Example 423, 3-(morpholin-4-ylcarbonyl)-1-{1-[2-(tetrahydro-2H-pyran-4-yl)ethyl]piperidin-3-yl}-1,4-dihydropyrazolo[3′,4′:4,5]thiopyrano[2,3-b]pyridine 5,5-dioxide]	99
O=C(c1nn(-c2cccc(-c3cnn(CCN4CCOCC4)c3)c2)c2c1CS(=O)(=O)c1ccccc1-2)N1CCOCC1 [Example 188, 3-(Morpholin-4-ylcarbonyl)-1-{3-[1-(2-morpholin-4-ylethyl)-1H-pyrazol-4-yl]phenyl)-1,4-dihydrothiochromeno[4,3-c]pyrazole 5,5-dioxide]	338
COC1CCN(Cc2cccc(-n3nc(C(=O)N4CCOCC4)c4c3-c3ccccc3S(=O)(=O)C4)c2)CC1 [Example 234, 1-{3-[(4-Methoxypiperidin-1-yl)methyl]phenyl}-3-(morpholin-4-ylcarbonyl)-1,4-dihydrothiochromeno[4,3-c]pyrazole 5,5-dioxide]	240
O=C(c1nn(-c2cccc(-c3ccccc3)c2)c2c1CS(=O)(=O)c1ccccc1-2)N1CCOCC1 [Example 157, 1-Biphenyl-3-yl-3-(morpholin-4-ylcarbonyl)-1,4-dihydrothiochromeno[4,3-c]pyrazole 5,5-dioxide]	764
COCCN1CCC[C@@H](n2nc(C(=O)N3CCOCC3)c3c2-c2ccccc2S(=O)(=O)C3)C1 (single isomer, unassigned) [Example 347, 1-[1-(2-methoxyethyl)piperidin-3-yl]-3-(morpholin-4-ylcarbonyl)-1,4-dihydrothiochromeno[4,3-c]pyrazole 5,5-dioxide]	3550
O=C(c1nn(CCc2ccccn2)c2c1CS(=O)(=O)c1ccccc1-2)N1CCOCC1 [Example 55, 3-(morpholin-4-ylcarbonyl)-1-(2-pyridin-2-ylethyl)-1,4-dihydrothiochromeno[4,3-c]pyrazole 5,5-dioxide]	1920
COCCNC(=O)c1cccc(-n2nc(C(=O)N3CCOCC3)c3c2-c2ccccc2S(=O)(=O)C3)c1 [Example 126, N-(2-Methoxyethyl)-3-[3-(morpholin-4-ylcarbonyl)-5,5-dioxidothiochromeno[4,3-c]pyrazol-1 (4H)-yl]benzamide]	1110
O=C(c1ccc(-n2nc(C(=O)N3CCOCC3)c3c2-c2ccccc2S(=O)(=O)C3)cc1)N1CCOCC1 [Example 147, 3-(Morpholin-4-ylcarbonyl)-1-[4-(morpholin-4-ylcarbonyl)phenyl]-1,4-dihydrothiochromeno[4,3-c]pyrazole 5,5-dioxide]	274
O=C(c1nn(C2CCN(CCCl)C2)c2c1CS(=O)(=O)c1ccccc1-2)N1CCOCC1 (stereo not shown) [Example 274]	305
CC(C)CCN1CCCC(n2nc(C(=O)N3CCOCC3)c3c2-c2ccccc2S(=O)(=O)C3)C1 (stereo not shown) [Example 173, 1-[1-(3-Methylbutyl)piperidin-3-yl]-3-(morpholin-4-ylcarbonyl)-1,4-dihydrothiochromeno[4,3-c]pyrazole 5,5-dioxide]	138
CCc1noc(Cn2nc(C(=O)N3CCOCC3)c3c2-c2ccccc2S(=O)(=O)C3)n1 [Example 230, 1-[(3-Ethyl-1,2,4-oxadiazol-5-yl)methyl]-3-(morpholin-4-ylcarbonyl)-1,4-dihydrothiochromeno[4,3-c]pyrazole 5,5-dioxide]	1920
COCCN1CCC[C@H](n2nc(C(=O)N3CCOCC3)c3c2-c2cccc(F)c2S(=O)(=O)C3)C1 (single isomer, unassigned) [Example 434, 6-Fluoro-1-[1-(2-methoxyethyl)piperidin-3-yl]-3-(morpholin-4-ylcarbonyl)-1,4-dihydrothiochromeno[4,3-c]pyrazole 5,5-dioxide]	31
NC(=O)c1cccc2c1S(=O)(=O)Cc1c(C(=O)N3CCOCC3)nn(-c3ccccc3)c1-2 [Example 250, 3-(Morpholin-4-ylcarbonyl)-1-phenyl-1,4-dihydrothiochromeno[4,3-c]pyrazole-6-carboxamide 5,5-dioxide]	7900
CC1(C)CN(CCN2CCC[C@H](n3nc(C(=O)N4CCOCC4)c4c3-c3ccccc3S(=O)(=O)C4)C2)CCO1 (single isomer, unassigned) [Example 370, 1-{1-[2-(2,2-dimethylmorpholin-4-yl)ethyl]piperidin-3-yl}-3-(morpholin-4-ylcarbonyl)-1,4-dihydrothiochromeno[4,3-c]pyrazole 5,5-dioxide]	73
CC1CN(CCN2CCC[C@H](n3nc(C(=O)N4CCOCC4)c4c3-c3ccccc3S(=O)(=O)C4)C2)CCO1 (single isomer, unassigned) [Example 385, 1-{1-[2-(2-methylmorpholin-4-yl)ethyl]piperidin-3-yl}-3-(morpholin-4-ylcarbonyl)-1,4-dihydrothiochromeno[4,3-c]pyrazole 5,5-dioxide]	29
COC(=O)CCN1CCC[C@H](n2nc(C(=O)N3CCOCC3)c3c2-c2ccccc2S(=O)(=O)C3)C1 (single isomer, unassigned) [Example 433, methyl 3-{3-[3-(morpholin-4-ylcarbonyl)-5,5-dioxidothiochromeno[4,3-c]pyrazol-1(4H)-yl]piperidin-1-yl}propanoate]	48
O=C(c1nn(C2CCCN(c3cccnc3)C2)c2c1CS(=O)(=O)c1ccccc1-2)N1CCOCC1 (single isomer, unassigned) [Example 484, 3-(morpholin-4-ylcarbonyl)-1-[1-pyridin-3-ylpiperidin-3-yl]-1,4-dihydrothiochromeno[4,3-c]pyrazole 5,5-dioxide]	48
Cc1nc(CN2CCCC(n3nc(C(=O)N4CCOCC4)c4c3-c3ccccc3S(=O)(=O)C4)C2)no1 (stereo not shown) [Example 295, 1-{1-[(5-Methyl-1,2,4-oxadiazol-3-yl)methyl]piperidin-3-yl}-3-(morpholin-4-ylcarbonyl)-1,4-dihydrothiochromeno[4,3-c]pyrazole 5,5-dioxide]	134
O=C(c1nn(C2CCCN(CC3CCOC3)C2)c2c1CS(=O)(=O)c1c(F)cccc1-2)N1CCOCC1 (stereo not shown) [Example 404, 6-Fluoro-3-(morpholin-4-ylcarbonyl)-1-[1-(tetrahydrofuran-3-ylmethyl)piperidin-3-yl]-1,4-dihydrothiochromeno[4,3-c]pyrazole 5,5-dioxide]	21
CC(C)(C)OC(=O)N1CCC(n2nc(C(=O)N3CCOCC3)c3c2-c2ccccc2S(=O)(=O)C3)C1 (stereo not shown) [Example 254]	1200
CN(C)S(=O)(=O)c1cccc(-n2nc(C(=O)N3CCOCC3)c3c2-c2ccccc2S(=O)(=O)C3)c1 [Example 207, N,N-Dimethvl-3-[3-(morpholin-4-ylcarbonyl)-5,5-dioxidothiochromeno[4,3-c]pyrazol-1 (4H)-yl]benzenesulfonamide]	641
O=C(c1nn(-c2ccc(CN3CC(F)C3)cc2)c2c1CS(=O)(=O)c1ccccc1-2)N1CCOCC1 [Example 430, 1-{4-[(3-Fluoroazetidin-1-yl)methyl]phenyl}-3-(morpholin-4-ylcarbonyl)-1,4-dihydrothiochromeno[4,3-c]pyrazole 5,5-dioxide]	229
CN1CCC(N2CCC[C@H](n3nc(C(=O)N4CCOCC4)c4c3-c3ccccc3S(=O)(=O)C4)C2)CC1 (stereo in doubt) [Example 451, 1-[1′-methyl-1,4′-bipiperidin-3-yl]-3-(morpholin-4-ylcarbonyl)-1,4-dihydrothiochromeno[4,3-c]pyrazole 5,5-dioxide]	28
O=C(CCN1CCC[C@H](n2nc(C(=O)N3CCOCC3)c3c2-c2ccccc2S(=O)(=O)C3)C1)N1CCC(F)(F)C1 (stereo in doubt) [Example 441, 1-{1-[3-(3,3-difluoropyrrolidin-1-yl)-3-oxopropyl]piperidin-3-yl}-3-(morpholin-4-ylcarbonyl)-1,4-dihydrothiochromeno[4,3-c]pyrazole 5,5-dioxide]	41
COCc1noc(-c2cccc(-n3nc(C(=O)N4CCOCC4)c4c3-c3ccccc3S(=O)(=O)C4)c2)n1 [Example 214, 1-{3-[3-(Methoxymethyl)-1,2,4-oxadiazol-5-yl]phenyl)-3-(morpholin-4-ylcarbonyl)-1,4-dihydrothiochromeno[4,3-c]pyrazole 5,5-dioxide]	4190
O=C(c1nn(C2CCCN(CCCn3cccc3)C2)c2c1CS(=O)(=O)c1ccccc1-2)N1CCOCC1 (stereo not shown) [Example 296, 3-(Morpholin-4-ylcarbonyl)-1-{1-[3-(1H-pyrrol-1-yl)propyl]piperidin-3-yl}-1,4-dihydrothiochromeno[4,3-c]pyrazole 5,5-dioxide]	90
Cc1cccc2c1S(=O)(=O)Cc1c(C(=O)N3CCOCC3)nn(-c3ccccc3)c1-2 [Example 202, 6-Methyl-3-(morpholin-4-ylcarbonyl)-1-phenyl-1,4-dihydrothiochromeno[4,3-c]pyrazole 5,5-dioxide]	1740
COc1ccc2c(c1)S(=O)(=O)Cc1c(C(=O)N3CCOCC3)nn([C@H]3CCCN(C4CCCOC4)C3)c1-2 (stereo in doubt) [Example 389, 7-methoxy-3-(morpholin-4-ylcarbonyl)-1-[1-(tetrahydro-2H-pyran-3-yl)piperidin-3-yl]-1,4-dihydrothiochromeno[4,3-c]pyrazole 5,5-dioxide]	24
COc1ccc2c(c1)S(=O)(=O)Cc1c(C(=O)N3CCOCC3)nn(C)c1-2 [Example 4, 7-methoxy-1-methyl-3-(morpholin-4-ylcarbonyl)-1,4-dihydrothiochromeno[4,3-c]pyrazole 5,5-dioxide]	422

same assay, conditions: inhibition at 20 μM

SMILES	Best potency measured on the 4 PI3K isoforms, % inh @20 μM [% inh @20 μM]
O=C(c1nn(-c2ccccc2)c2c1CS(=O)(=O)c1c(CN3CCCCC3)cccc1-2)N1CCOCC1 [Example 319]	33
